Assay results as given in article PMC8401767, “Spectroscopic Studies of Quinobenzothiazine Derivative in Terms of the In Vitro Interaction with Selected Human Plasma Proteins. Part 1” (Molecules, 2021).
Counter-ions that a name gives are not always drawn.

Experiments:
[1] = biological target: T1, Human serum albumin (HSA) (Homo sapiens, UniProt P02768); test: intrinsic protein fluorescence quenching, Klotz plot; assay type: binding; conditions: λex 295 nm (Trp); pH 7.4, 0.05 M phosphate, 298 K; unit misprinted in table, L/mol by b49
T1 construct: gene ALB
T1 sequence (P02768 25-609): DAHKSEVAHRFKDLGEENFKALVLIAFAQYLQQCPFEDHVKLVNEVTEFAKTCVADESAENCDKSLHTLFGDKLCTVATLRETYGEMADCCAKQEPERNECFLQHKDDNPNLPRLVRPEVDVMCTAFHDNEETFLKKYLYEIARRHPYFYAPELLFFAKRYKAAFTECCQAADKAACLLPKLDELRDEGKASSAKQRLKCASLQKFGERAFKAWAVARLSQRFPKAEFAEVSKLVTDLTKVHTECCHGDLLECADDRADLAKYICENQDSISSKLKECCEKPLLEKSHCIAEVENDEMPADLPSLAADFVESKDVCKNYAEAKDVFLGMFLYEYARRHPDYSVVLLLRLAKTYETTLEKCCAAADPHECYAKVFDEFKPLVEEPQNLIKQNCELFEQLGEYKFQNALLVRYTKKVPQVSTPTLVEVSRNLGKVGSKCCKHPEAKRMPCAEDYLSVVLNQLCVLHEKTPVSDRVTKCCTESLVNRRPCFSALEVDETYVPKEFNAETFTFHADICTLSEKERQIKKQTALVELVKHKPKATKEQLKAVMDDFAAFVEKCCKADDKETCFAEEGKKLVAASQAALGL
Description: intrinsic protein fluorescence quenching, Klotz plot on Human serum albumin (HSA)

[2] = test system: T2, α-1-Acid glycoprotein (AGP, orosomucoid); test: as above; assay type: binding, Homo sapiens; conditions: λex 295 nm (Trp); pH 7.4, 0.05 M phosphate, 298 K; unit misprinted in table, L/mol by b49
T2 construct: gene ORM1
Description: intrinsic protein fluorescence quenching, Klotz plot on α-1-Acid glycoprotein (AGP, orosomucoid)

## C[n+]1cc2c(c3ccccc31)Nc1ccccc1S2 [Salt1, 5-methyl-12(H)-chino[3,4-b][1,4]benzothiazinium chloride]
[1]
  λex 295 nm / (Ka. 10^4) ±SD * (mol.L^-1): 2.71 ± 0.01 ·10^4
[2]
  λex 295 nm / (Ka. 10^4) ±SD * (mol.L^-1): 7.86 ± 0.03 ·10^4
